Target: T1, TFEB (Mus musculus, UniProt Q9R210)
T1 construct: the expression and distribution of endogenous TFEB in N2a cells treated with curcumin and its analogs are determined; endogenous in cells; host or cells: N2a cells
T1 sequence (Q9R210 1-475): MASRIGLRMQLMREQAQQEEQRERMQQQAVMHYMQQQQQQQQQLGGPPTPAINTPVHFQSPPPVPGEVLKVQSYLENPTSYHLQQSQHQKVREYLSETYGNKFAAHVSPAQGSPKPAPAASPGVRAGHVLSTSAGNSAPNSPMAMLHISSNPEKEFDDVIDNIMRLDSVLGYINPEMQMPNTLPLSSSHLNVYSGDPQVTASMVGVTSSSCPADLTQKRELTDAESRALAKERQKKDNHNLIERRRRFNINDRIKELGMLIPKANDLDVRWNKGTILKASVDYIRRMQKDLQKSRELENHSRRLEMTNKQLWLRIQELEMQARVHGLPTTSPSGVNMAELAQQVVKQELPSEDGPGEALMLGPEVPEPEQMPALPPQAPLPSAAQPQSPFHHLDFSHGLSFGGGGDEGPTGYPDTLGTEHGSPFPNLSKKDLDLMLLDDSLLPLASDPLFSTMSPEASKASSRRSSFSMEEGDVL
Experiment: Expression and distribution of endogenous TFEB in N2a cells (immunostaining, western blot)
Format: cell-based
Details: for nuclear accumulation of endogenous TFEB by immunofluorescence compared to vehicle control / nuclear translocation of endogenous TFEB, cytosolic and nuclear fractions by Western blots / nuclear translocation (distribution) of endogenous TFEB / total levels (expression) of endogenous TFEB: N2a cells; for nuclear accumulation of endogenous TFEB by immunofluorescence compared to vehicle control / nuclear translocation of endogenous TFEB, cytosolic and nuclear fractions by Western blots: 1 μM, 12 hours; for nuclear translocation (distribution) of endogenous TFEB / total levels (expression) of endogenous TFEB: 12 h, curcumin 10 μM, analogs 1 μM
Description: Cells were treated with curcumin (Cur, 10 μM), A2, B3 and C1 (1 μM) for 12 h. […] Data is quantified by ImageJ software and is presented as mean±SD of three replicates for each treatment conditions. At least 1000 cells are analyzed in each treatment group. *p<0.05 vs. the control (0.1% DMSO). FIG. 4C is a western blot showing the expression of endogenous TFEB. […] Data are presented as the mean±SD from three independent experiments. *p<0.05 vs. the control (0.1% DMSO). FIG. 4E is fluorescence images showing expression of 3×Flag-TFEB in Hela cells having treated with Cur (10 μM), A2, B3 and C1 (1 μM) for 12 h. Torin 1 (1 μM) treatment for 2 h is used as a positive control. Cells were fixed and stained with anti-Flag antibody. […] FIG. 4G is the western blot showing the expression of Flag-tagged TFEB in the cytosolic (Cyt.) and nuclear (Nuc.) fractions. ACTB and H3F3A (H3 histone, family 3A) are used as loading control of cytoplasmic and nuclear fraction, respectively. FIG. 4H is showing the relative intensity of TFEB in the cytosolic and nuclear fractions. Data are presented as the mean±SD from three independent experiments. *p<0.05 vs. the control (0.1% DMSO).
N2a cells are treated with E2, E3 and E4 (1 μM) for 12 hours. Torin 1 (1 μM) treatment for 2 hours is used as a positive control. The cells are fixed and stained with TFEB antibody (green) and DAPI (blue) (FIG. 16A). TFEB translocate into nucleus are quantified. Quantification data (FIG. 16B) are presented as mean±SD of three replicates in a representative experiment. At least 500 cells are analyzed in each treatment group.
N2a cells are treated with E2, E3, and E4 (1 μM) for 12 hours. Torin 1 (1 μM) treatment for 2 hours is used as a positive control. The expression of endogenous TFEB in the cytosolic (Cyt.) and nuclear (Nuc.) fractions are determined by western blotting (FIG. 17A) and quantified (FIG. 17B). TUBB (β-tubulin) and H3F3A (H3 histone, family 3A) are used as loading control of cytoplasmic and nuclear fraction respectively. Quantification data are presented as the mean±SD from three independent experiments. *p<0.05 vs. the control (0.1% DMSO).
Cells are lysed on ice in 1× Lysis Buffer (9803, Life Technologies) with complete protease inhibitor mixture (04693124001, Roche Applied Science). Animal tissues are homogenized in nine volumes of ice-cold PBS supplemented with protease inhibitors. Cytosolic and nuclear fractions are isolated using protocols similar to those described previously. Anti-Flag or TFEB antibody is added to the whole cell lysates and Dynabeads® Protein G (10003D, Life Technologies) is used for immunoprecipitation. Proteins are separated by 10-15% SDS-PAGE, transferred, and blotted with the antibodies described. The blots are then incubated with secondary antibodies or the Clean-Blot IP Detection Reagent (21230, Thermo Scientific) at room temperature for 1 h. The protein signals are detected by ECL kit (32106, Pierce) and quantified using ImageJ software.
Cells are seeded on coverslips placed in 24-well plates. After drug treatment, slices are fixed with 3.7% paraformaldehyde, permeabilized in 0.2% Triton X-100 and blocked with 5% BSA. After blocking, the slices are stained with anti-TFEB (1:200) or anti-Flag (1:500) antibodies overnight at 4° C. Alexa Fluor®488 (green) or Alexa Fluor®594 (red) secondary antibodies (1:500) are added for 1 h at room temperature. After nuclear staining with DAPI, the slices are mounted with FluorSave reagent (345789, Calbiochem). Cells are visualized using an Eclipse 80i fluorescence microscope (Nikon Instruments Inc.)
Cells are lysed on ice in 1× Lysis Buffer (9803, Life Technologies) with complete protease inhibitor mixture (04693124001, Roche Applied Science) and phosphatase inhibitor (B15001, Biotool). Cytosolic and nuclear fractions are isolated using protocols similar to those described previously. Proteins are separated by 10-15% SDS-PAGE, transferred, and blotted with the antibodies described. […]

Row | activity to promote TFEB nucleus translocation, comparison among E series analogs | nuclear accumulation of endogenous TFEB by immunofluorescence compared to vehicle control | nuclear translocation of endogenous TFEB, cytosolic and nuclear fractions by Western blots | nuclear translocation (distribution) of endogenous TFEB | total levels (expression) of endogenous TFEB | Structure (SMILES)
1 | best activity | striking nuclear accumulation | potently induce |  |  | O=C(/C=C/c1ccccc1I)/C=C/c1ccccc1I [E4]
2 |  |  |  | no effects | no effects | COc1cc(/C=C/C(=O)CC(=O)/C=C/c2ccc(O)c(OC)c2)ccc1O [curcumin, Curcumin, reference compound]
3 |  | striking nuclear accumulation | potently induce |  |  | O=C(/C=C/c1ccccc1Cl)/C=C/c1ccccc1Cl [E2]
4 |  |  |  | no effects | no effects | O=C(/C=C/c1ccc(O)cc1)/C=C/c1ccc(O)cc1 [B3, 1,5-bis(4-hydroxyphenyl)penta-1,4-dien-3-one]
5 |  |  |  | no effects | no effects | O=C(/C=C/c1cccc(C(F)(F)F)c1)/C=C/c1cccc(C(F)(F)F)c1 [A2, 1,5-bis(3-(trifluoromethyl)phenyl)penta-1,4-dien-3-one]
6 |  | striking nuclear accumulation | potently induce |  |  | O=C(/C=C/c1ccccc1Br)/C=C/c1ccccc1Br [E3]

Row | Structure (SMILES) | activity to promote TFEB nucleus translocation, comparison among E series analogs | nuclear accumulation of endogenous TFEB by immunofluorescence compared to vehicle control | nuclear translocation of endogenous TFEB, cytosolic and nuclear fractions by Western blots | nuclear translocation (distribution) of endogenous TFEB | total levels (expression) of endogenous TFEB
7 | COc1ccccc1/C=C/C(=O)/C=C/c1ccccc1OC [C1, 1,5-bis(2-methoxyphenyl)penta-1,4-dien-3-one] |  |  |  | promotes | increases

Reference: patent publication US9540299B2, “MTOR-independent activator of TFEB for autophagy enhancement and uses thereof” (Hong Kong Baptist University, priority 2015, dated 2017)
